Test results taken from ChEMBL document CHEMBL1201862, “PubChem BioAssay data set” (2004).
Values belong to the molecule of their own block, whether it stands above or below them. Calls of active or inactive are those of the source.

Legend:
[1] = toxicity toward HepG2 liver cells – cell-based, plate reader, cherry-pick, antagonist series, cytotoxicity control, dose response (AID 743416); assay type: functional
[2] = blockade of melanocortin 4 receptor signaling – cell-based, plate reader, cherry pick, counter-screen for LGR2 antagonist project, dose response (AID 743444); assay type: functional;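 note: transfected HEK 293 cells stimulated with alpha-MSH peptide; potency of inhibitors of the alpha-MSH evoked signal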
[3] = blockers of bursicon-stimulated LGR2 cAMP reporter – cell-based, HEK293, CRE-luciferase reporter, cherry pick, set 2, dose response (AID 743343); assay type: functional;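 note: transfected cells were stimulated with diluted bursicon conditioned medium after compound addition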
[4] = A549 cell cytotoxicity, dose response, cytotoxicity control, plate reader, cherry-pick, antagonist series (AID 743412); assay type: functional, cell-based
cells [5] = assay type: functional, cell-based
cells [6] = assay type: functional, cell-based; remark: listed apart in the source
[7] = target: T1, Protein disulfide-isomerase (Homo sapiens, UniProt P07237); assay: inhibition of PDI-mediated insulin reduction – biochemical, turbidity, dry powder samples, set 2, confirmation (AID 652146)
[8] = target: Intestinal-type alkaline phosphatase (Mus musculus, UniProt P24822); assay: PubChem AID 488785; assay type: functional
[9] = target: Intestinal-type alkaline phosphatase (Homo sapiens, UniProt P09923); assay: inhibition of human intestinal alkaline phosphatase – biochemical, dose response (AID 488876); assay type: functional
[10] = target: T1, Protein disulfide-isomerase; assay: inhibition of PDI-driven insulin aggregation – biochemical, turbidity, absorbance, cherry-picked samples, dose response (AID 602350); assay type: functional
[11] = target: T2, Alkaline phosphatase, tissue-nonspecific isozyme (Homo sapiens, UniProt P05186); assay: TNAP enzyme inhibition by screening hits, dose response, selectivity assay for mouse IAP inhibitor project, biochemical, human TNAP, uHTS hits (AID 488906); assay type: functional
T2 sequence (P05186 whole entry): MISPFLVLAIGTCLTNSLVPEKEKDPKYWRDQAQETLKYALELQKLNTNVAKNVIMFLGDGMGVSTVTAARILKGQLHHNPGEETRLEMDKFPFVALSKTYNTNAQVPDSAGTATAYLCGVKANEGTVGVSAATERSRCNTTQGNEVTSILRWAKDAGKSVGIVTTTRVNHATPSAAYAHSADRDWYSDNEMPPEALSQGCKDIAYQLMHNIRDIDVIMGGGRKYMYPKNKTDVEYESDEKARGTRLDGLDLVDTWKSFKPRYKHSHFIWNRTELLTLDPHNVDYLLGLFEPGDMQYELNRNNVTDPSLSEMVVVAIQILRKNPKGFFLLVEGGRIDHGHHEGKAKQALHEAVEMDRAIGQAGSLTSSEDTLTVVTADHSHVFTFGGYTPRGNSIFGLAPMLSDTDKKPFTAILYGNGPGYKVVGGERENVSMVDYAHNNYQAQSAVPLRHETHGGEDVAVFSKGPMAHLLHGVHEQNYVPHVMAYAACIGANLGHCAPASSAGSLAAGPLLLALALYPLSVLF

[12] = target: Disintegrin and metalloproteinase domain-containing protein 17 (Homo sapiens, UniProt P78536); assay: exosite inhibitors of ADAM17, dose response, biochemical (AID 743260)
[13] = inhibition of ADAM10 peptide cleavage – biochemical, FRET peptide substrate, recombinant human ADAM10, selectivity assay for ADAM17 exosite inhibitor project, dose response (AID 743259);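 note: ADAM10 enzyme cleaving a FRET peptide substrate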
Beta-galactosidase = Beta-galactosidase (Escherichia coli, UniProt Q8VNN2); assay: detection-enzyme interference by beta-gal modulators – biochemical, E. coli enzyme, set 3, artefact control for CCR6 antagonist project, dose response (AID 504712); assay type: functional
[14] = target: T3, Small ubiquitin-related modifier 2 (Homo sapiens, UniProt P61956); assay: disruption of SUMO2 interaction with SIM peptide – biochemical, fluorescence polarization, uHTS hits, selectivity assay for SUMO1 interaction inhibitor project, dose response (AID 624385); assay type: functional; conditions: read-out: IC50_Mean
[15] = target: T4, Small ubiquitin-related modifier 1 (Homo sapiens, UniProt P63165); assay: SUMO1 protein interaction blockers, potency – biochemical, fluorescence polarization, uHTS hits, dose response (AID 624382); assay type: functional; conditions: read-out: IC50_Mean
[16] = viability loss in HeLa cells – cytotoxicity control for MgcRacGAP inhibitor project, dose response (AID 624300); assay type: functional
[17] = target: T5, Rac GTPase-activating protein 1 (Homo sapiens, UniProt Q9H0H5); assay: blockers of MgcRacGAP-driven Rac1 GTP hydrolysis – biochemical, ADP Hunter fluorescence, primary and confirmatory, confirmation (AID 624330); assay type: functional
T5 sequence (Q9H0H5 whole entry): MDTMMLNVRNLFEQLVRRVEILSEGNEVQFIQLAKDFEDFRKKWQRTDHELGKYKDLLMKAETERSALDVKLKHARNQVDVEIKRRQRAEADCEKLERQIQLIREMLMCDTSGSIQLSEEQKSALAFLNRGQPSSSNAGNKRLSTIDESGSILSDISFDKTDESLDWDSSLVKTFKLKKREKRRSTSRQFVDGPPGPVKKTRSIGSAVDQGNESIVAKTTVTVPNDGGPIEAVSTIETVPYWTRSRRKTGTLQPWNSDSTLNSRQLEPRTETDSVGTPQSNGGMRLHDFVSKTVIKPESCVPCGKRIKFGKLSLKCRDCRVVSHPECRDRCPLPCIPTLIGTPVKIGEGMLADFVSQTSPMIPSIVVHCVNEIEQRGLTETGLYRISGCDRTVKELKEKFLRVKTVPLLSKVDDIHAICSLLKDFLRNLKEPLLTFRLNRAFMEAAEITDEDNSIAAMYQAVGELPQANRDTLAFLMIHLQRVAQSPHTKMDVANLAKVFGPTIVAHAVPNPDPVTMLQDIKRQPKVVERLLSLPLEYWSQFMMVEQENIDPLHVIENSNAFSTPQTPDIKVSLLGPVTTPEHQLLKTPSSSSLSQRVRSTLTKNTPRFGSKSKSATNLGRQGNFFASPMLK

[18] = target: T4, Small ubiquitin-related modifier 1; assay: SUMO1 protein-protein binding blockers, potency – biochemical, FRET, dose response (AID 624383); assay type: functional; conditions: read-out: IC50_Mean
[19] = target: T3, Small ubiquitin-related modifier 2; assay: SUMO2 binding disruption by SUMO1 hits – biochemical, FRET, human SUMO2, uHTS hits, selectivity assay for SUMO1 interaction inhibitor project, dose response (AID 624384); assay type: functional; conditions: read-out: IC50_Mean
[20] = target: T6, Carboxy-terminal domain RNA polymerase II polypeptide A small phosphatase 1 (Homo sapiens, UniProt Q9GZU7); assay: CTDSP1 inhibitors, concentration-response, biochemical, absorbance readout, ultra-high-throughput screen actives (AID 540297); assay type: functional
T6 sequence (Q9GZU7 whole entry): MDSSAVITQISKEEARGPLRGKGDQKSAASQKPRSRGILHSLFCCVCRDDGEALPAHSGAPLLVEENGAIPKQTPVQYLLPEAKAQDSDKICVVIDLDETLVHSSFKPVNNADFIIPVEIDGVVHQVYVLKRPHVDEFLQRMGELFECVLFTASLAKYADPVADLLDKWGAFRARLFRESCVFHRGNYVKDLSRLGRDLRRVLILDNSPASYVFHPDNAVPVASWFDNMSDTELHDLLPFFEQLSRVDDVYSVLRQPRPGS

[21] = target: DNA (cytosine-5)-methyltransferase 1 (Homo sapiens, UniProt P26358); assay: inhibition of DNA methylation by DNMT1 – biochemical, fluorescent molecular beacon, confirmation (AID 602386); assay type: functional
[22] = target: T7, Probable nicotinate-nucleotide adenylyltransferase (Staphylococcus aureus (strain N315), UniProt P65502); assay type: functional, Staphylococcus aureus subsp. aureus N315; conditions: read-out: IC50_Mean;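 for IC50 Mean: confirmatory dose-response retesting of NadD inhibitor hits first found in an ultra-high-throughput screen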
[23] = target: T7, Probable nicotinate-nucleotide adenylyltransferase; assay type: functional, Staphylococcus aureus subsp. aureus N315
Vero = assay: viability loss in Vero cells – cell-based, plate reader, cherry-pick samples, cytotoxicity control, dose response (AID 687020); assay type: functional; conditions: Chlorocebus sabaeus
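Throughout, for EC50: agonist potency from rise in intracellular calcium fluorescence.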

T1 sequence (P07237 whole entry): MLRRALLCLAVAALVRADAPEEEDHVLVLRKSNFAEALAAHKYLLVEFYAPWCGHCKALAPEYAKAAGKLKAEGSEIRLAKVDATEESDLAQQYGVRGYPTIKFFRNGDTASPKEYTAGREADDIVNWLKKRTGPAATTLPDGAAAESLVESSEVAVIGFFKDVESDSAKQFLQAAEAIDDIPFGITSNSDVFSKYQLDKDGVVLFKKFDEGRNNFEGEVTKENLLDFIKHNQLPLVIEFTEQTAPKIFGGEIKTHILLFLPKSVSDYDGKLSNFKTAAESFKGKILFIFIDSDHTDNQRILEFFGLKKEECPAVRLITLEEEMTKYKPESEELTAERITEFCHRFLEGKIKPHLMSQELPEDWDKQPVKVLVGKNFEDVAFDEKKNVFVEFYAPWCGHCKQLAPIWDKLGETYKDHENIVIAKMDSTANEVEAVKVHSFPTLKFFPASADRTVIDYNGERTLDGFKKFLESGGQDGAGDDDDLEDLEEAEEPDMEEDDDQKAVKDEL
T4 sequence (P63165 whole entry): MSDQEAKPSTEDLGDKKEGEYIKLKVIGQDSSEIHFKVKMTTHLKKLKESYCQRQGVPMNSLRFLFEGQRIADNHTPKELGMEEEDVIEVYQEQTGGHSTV
T3 sequence (P61956 whole entry): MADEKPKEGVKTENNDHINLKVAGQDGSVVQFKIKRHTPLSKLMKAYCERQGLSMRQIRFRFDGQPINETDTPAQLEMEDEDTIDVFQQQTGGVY
DNA (cytosine-5)-methyltransferase 1, sequence (P26358 whole entry): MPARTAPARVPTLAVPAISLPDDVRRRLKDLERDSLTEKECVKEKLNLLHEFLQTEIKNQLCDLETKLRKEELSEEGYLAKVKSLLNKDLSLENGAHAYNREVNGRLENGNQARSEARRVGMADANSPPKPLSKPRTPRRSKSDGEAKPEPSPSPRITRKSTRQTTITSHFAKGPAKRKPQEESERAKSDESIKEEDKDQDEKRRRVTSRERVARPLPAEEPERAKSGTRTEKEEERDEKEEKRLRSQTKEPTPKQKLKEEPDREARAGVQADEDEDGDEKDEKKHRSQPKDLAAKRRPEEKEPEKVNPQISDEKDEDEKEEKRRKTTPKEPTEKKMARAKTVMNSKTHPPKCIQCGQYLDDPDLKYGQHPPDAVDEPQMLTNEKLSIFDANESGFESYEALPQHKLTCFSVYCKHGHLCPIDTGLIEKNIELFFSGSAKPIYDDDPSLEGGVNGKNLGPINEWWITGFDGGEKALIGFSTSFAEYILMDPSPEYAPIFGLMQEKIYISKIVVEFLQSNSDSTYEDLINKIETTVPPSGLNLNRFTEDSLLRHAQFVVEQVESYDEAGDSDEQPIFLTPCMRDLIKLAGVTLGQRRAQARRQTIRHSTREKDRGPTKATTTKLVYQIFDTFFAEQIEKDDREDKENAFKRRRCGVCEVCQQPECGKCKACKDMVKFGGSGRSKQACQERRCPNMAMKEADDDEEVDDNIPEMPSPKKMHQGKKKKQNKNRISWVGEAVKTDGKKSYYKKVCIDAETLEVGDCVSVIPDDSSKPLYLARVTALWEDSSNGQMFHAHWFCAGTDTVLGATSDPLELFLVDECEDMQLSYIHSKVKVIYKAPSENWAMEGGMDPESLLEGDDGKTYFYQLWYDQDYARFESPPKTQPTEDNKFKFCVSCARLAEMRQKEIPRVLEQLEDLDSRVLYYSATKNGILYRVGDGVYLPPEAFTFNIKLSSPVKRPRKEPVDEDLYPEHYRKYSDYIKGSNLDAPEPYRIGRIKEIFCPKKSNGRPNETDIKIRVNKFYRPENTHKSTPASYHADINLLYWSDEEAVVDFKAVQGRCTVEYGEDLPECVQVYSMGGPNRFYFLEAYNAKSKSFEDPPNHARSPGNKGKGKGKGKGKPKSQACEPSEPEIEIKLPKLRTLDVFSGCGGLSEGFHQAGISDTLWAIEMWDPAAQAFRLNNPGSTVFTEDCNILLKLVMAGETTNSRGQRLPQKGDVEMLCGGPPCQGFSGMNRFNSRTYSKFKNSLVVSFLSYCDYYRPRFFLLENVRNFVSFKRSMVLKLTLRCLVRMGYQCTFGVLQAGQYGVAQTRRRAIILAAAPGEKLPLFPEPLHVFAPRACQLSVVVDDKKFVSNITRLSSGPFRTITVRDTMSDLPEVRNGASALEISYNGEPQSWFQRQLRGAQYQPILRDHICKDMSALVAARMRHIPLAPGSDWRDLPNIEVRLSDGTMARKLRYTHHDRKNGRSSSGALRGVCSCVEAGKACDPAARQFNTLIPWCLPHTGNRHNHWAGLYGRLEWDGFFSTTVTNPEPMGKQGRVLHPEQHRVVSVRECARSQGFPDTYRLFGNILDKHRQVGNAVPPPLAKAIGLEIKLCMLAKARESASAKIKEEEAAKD
Disintegrin and metalloproteinase domain-containing protein 17, sequence (P78536 whole entry, the tested form may be a part): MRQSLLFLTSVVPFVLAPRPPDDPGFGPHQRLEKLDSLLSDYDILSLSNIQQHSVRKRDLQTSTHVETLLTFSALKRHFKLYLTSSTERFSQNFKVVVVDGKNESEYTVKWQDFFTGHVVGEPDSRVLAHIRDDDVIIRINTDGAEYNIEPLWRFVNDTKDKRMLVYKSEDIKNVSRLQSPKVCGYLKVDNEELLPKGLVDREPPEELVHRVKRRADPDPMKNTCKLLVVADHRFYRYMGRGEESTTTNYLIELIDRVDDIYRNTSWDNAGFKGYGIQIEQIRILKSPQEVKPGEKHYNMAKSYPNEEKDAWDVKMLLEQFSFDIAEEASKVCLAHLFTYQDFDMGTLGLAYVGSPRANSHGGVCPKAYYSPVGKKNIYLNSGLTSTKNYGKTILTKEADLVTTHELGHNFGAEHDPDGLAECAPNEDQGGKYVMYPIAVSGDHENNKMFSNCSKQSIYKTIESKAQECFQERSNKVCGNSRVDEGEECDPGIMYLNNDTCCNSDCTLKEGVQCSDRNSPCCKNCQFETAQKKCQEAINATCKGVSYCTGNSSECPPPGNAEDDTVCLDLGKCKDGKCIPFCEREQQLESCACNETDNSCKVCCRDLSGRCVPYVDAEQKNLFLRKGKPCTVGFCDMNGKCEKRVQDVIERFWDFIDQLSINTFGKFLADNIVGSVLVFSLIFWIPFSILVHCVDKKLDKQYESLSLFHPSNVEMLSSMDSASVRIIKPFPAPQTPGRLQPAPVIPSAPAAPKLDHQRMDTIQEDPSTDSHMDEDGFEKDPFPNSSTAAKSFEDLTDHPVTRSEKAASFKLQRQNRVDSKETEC
Beta-galactosidase, sequence (Q8VNN2 whole entry): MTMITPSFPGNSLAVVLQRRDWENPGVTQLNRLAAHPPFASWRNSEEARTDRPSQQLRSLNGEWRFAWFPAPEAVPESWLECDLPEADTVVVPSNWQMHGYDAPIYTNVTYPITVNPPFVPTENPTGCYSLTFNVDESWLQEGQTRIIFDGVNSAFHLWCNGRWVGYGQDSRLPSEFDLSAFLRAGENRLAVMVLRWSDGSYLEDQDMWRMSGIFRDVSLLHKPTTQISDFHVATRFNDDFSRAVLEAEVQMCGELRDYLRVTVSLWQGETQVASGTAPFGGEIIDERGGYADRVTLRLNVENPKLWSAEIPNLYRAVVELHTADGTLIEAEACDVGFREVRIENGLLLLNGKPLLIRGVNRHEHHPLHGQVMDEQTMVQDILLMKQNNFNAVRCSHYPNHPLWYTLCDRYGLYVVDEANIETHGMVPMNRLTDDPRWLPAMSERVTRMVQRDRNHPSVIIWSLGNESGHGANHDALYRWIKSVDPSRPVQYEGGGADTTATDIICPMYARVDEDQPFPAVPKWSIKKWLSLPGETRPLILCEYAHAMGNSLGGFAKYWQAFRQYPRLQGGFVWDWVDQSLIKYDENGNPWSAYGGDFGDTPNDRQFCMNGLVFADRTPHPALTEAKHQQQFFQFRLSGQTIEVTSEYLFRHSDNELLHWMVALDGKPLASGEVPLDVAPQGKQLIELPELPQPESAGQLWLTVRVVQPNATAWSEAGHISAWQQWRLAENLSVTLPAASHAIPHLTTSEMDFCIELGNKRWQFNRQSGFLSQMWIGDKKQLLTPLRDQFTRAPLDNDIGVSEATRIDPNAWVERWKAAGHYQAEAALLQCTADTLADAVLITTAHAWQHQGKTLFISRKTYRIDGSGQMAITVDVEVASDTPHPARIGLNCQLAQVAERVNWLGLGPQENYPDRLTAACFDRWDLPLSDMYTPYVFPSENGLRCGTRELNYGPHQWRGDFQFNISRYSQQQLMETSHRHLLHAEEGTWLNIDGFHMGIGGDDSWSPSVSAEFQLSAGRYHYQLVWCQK
Intestinal-type alkaline phosphatase (Mus musculus, UniProt P24822), sequence (P24822 whole entry): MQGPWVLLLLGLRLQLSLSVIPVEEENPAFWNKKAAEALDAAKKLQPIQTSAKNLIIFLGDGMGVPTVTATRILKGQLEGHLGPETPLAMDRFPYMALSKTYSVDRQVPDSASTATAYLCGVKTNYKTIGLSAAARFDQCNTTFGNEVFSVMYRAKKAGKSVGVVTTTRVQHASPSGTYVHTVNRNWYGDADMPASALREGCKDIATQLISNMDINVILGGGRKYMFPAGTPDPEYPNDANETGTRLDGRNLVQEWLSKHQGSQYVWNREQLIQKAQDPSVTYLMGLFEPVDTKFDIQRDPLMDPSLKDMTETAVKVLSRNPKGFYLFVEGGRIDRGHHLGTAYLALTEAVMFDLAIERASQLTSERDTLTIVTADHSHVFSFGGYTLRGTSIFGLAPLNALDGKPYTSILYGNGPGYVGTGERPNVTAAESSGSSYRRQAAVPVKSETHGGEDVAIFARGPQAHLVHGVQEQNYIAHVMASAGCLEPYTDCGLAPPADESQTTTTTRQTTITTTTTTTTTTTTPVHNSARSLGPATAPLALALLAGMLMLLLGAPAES

SMILES: N#C[C@@H]1[C@H](c2ccc(C#Cc3cccc(F)c3)cc2)[C@@H](CO)N1C(=O)C1CCC1
- AC50 [1]: > 47 µM (inactive)
- AC50 [2]: 8.46 µM (active)
- AC50 [3]: 9.75 µM (active)
- AC50 [4]: 28.2 µM (active)

SMILES: CC(C)Cn1c(O)cc(=O)nc1SCC(=O)N1CCc2ccccc2C1
- IC50 (cells [5]): > 29.9 µM (inactive)
- EC50 (cells [6]): > 29.9 µM (inactive)

- AC50 [7]: > 30 µM (inactive)
SMILES: C=CCOc1ccc(CN2CCC(CCOc3ccccc3)(C(=O)NC3CCCC3)CC2)cc1Cl

- IC50 [8]: 7.21 µM (active)
- IC50 [9]: 18.3 µM (active)
- AC50 [10]: 19.5 µM (active)
- IC50 [11]: 19.7 µM (active)
SMILES: O=C(c1c(O)cc(O)cc1O)C1c2c(cc(O)c3c2O[C@H](c2ccc(O)cc2)[C@@H](O)C3)OC1c1ccc(O)cc1 (stereo partly specified) [DIHYDRODAPHNODORIN B]

SMILES: CCC(c1nnnn1Cc1ccccc1)N1CCC2(CC1)C(=O)NCN2c1ccccc1 (stereo unspecified)
- IC50 [12]: > 69.4 µM (inactive)
- IC50 [13]: > 69.4 µM (inactive)

SMILES: C=CCOc1ccc(C=NNc2ccc(S(=O)(=O)Nc3ccccc3C(=O)O)cc2[N+](=O)[O-])cc1OC
- IC50 (Beta-galactosidase): > 66.6 µM (inactive)
- IC50 [14]: 17.1 µM (active)
- IC50 [15]: 14 µM (active)
- CC50 [16]: 100 µM (active)
- IC50 [17]: 65.6 µM (active)
- IC50 [18]: 51.2 µM (inactive)
- IC50 [19]: > 66 µM (inactive)
- IC50 [20]: 2 µM (active)
- IC50 [21]: 5.32 µM (active)

SMILES: COc1ccc(Br)cc1/C=N/Nc1ccc(S(=O)(=O)Nc2ccccc2C(=O)O)cc1[N+](=O)[O-]
- IC50 [14]: 2.52 µM (active)
- IC50 [15]: 4.47 µM (active)
- IC50 [22]: 19.9 µM (active)
- IC50 [18]: 50.6 µM (inactive)
- IC50 [19]: 45.4 µM (inactive)
- IC50 [21]: 3.39 µM (active)
- IC50 [23]: 3.24 µM (active)

SMILES: CCn1c(=O)n(CC)c2cc(N3CCCC3)c(NC(=O)c3ccc(C)cc3)cc21
- AC50 (Vero): 32.2 µM (active)

- AC50 [7]: > 30 µM (inactive)
SMILES: O=C(N1CCCC1)C1(CCOc2ccccc2)CCN(Cc2ccc(O)c(Cl)c2)CC1
